US20250353819A1, “ARYL HYDANTOIN COMPOUNDS AND METHODS OF USE” (priority 2022, published 2025)
Read-outs that look alike come from different tables or passages of the source.

Experiments:
S. mansoni = assay: Antischistosomal screen in S. mansoni-infected mice; assay type: in vivo, Schistosoma mansoni; conditions: Schistosoma mansoni, single oral dose, mouse model
Excerpt: Antischistosomal Screen. […] As described by Lombardo et al. (2019), cercariae of S. mansoni were obtained from infected Biomphalaria glabrata. By way of example, NMRI mice were infected subcutaneously with approximately 100 S. mansoni cercariae. […] Untreated mice (n=8) served as controls. At 21 d post-treatment, animals were killed by the CO2 method and dissected. Worms were removed by picking, then sexed and counted.

S. japonicum = S. japonicum infections in hamsters; assay type: in vivo
[1] = Chemical stability (acid, base, H2O2); assay type: physicochemical
Method: Samples were neutralised and diluted to a nominal concentration of 100 μg/mL in 50% aq MeOH. […] A single degradation peak appeared in all the basic samples corresponding to the urea carboxylic acid hydrolysis product.

[2] = Stability in mouse cryopreserved hepatocytes; assay type: in vitro ADME
[3] = Plasma protein binding, rat plasma; assay type: in vitro ADME; conditions: read-out: % bound (converted)
[4] = Whole blood-to-plasma ratio, rat; assay type: in vitro ADME
Method: As part of the assessment of the IV pharmacokinetics, an additional blood sample was collected from each rat at 1 h post dose for the purposes of determining the whole blood-to-plasma (B/P) ratio. Arterial blood was collected into tubes containing heparin. The haematocrit was determined via centrifugation (13000×g for 4 min using a Clemets® Microhematocrit centrifuge and Safecap® Plain Self-sealing Mylar Wrapped capillary tubes), and values ranged from 41% to 42%. Each blood aliquot ([…]) was collected and matrix matched with an equivalent volume of blank plasma. The remainder of the blood sample was centrifuged and […] plasma aliquot was collected and matrix matched with an equivalent volume of blank blood. Samples were frozen on dry ice and stored at −80° C. until analysis by LC-MS.

CYP 1A2 = CYP 1A2 (Homo sapiens (Human), UniProt P05177); assay: CYP inhibition in human liver microsomes, 1A2; assay type: in vitro ADME
Chain of CYP 1A2 (P05177 whole entry): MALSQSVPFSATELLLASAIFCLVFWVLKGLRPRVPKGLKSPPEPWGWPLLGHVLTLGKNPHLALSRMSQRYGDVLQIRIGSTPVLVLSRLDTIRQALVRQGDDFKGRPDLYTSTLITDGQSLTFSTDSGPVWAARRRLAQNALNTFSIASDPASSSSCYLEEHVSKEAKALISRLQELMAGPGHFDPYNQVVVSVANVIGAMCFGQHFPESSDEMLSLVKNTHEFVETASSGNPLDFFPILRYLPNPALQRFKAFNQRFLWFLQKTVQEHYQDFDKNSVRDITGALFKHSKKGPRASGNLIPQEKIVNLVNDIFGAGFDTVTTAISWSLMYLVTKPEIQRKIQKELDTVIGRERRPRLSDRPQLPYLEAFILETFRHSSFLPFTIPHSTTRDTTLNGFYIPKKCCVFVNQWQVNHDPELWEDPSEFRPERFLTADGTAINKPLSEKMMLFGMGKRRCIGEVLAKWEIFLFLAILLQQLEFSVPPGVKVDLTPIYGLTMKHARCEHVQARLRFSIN

[5] = Pharmacokinetics in male Sprague Dawley rats; assay type: in vivo, rat; conditions: rats, mean (n = 3); for half-life: read-out: Apparent t1/2 (converted)
Method: IV and oral formulations were prepared using the same method. On the day of dosing the solid compound was dissolved in DMSO prior to addition of a saline solution (0.9% w/v). The samples were then mixed using vortexing producing colourless solutions. The IV formulation was filtered through a 0.22 μm syringe filter prior to dosing and the oral formulation was dosed without filtration.
Samples of arterial blood were collected up to 168 h post-dose. Urine samples were not collected as animals were housed in bedded cages. Arterial blood was collected directly into borosilicate vials (at 4° C.) containing heparin as anticoagulant. Once collected, blood samples were centrifuged, supernatant plasma was removed and stored frozen (−80° C.) until analysis by LC-MS. A summary of the bioanalytical method and assay validation details is included in Tables 14 and 15.
Plasma concentration versus time data were analysed using non-compartmental methods (PKSolver Version 2.0). Standard calculations for each pharmacokinetic parameter are listed below.

Binding to HLM = conditions: human liver microsomes
[6] = Whole blood-to-plasma ratio, mouse
CYP 2D6 = CYP 2D6 (Homo sapiens (Human), UniProt P10635); assay: CYP inhibition in human liver microsomes, 2D6
Chain of CYP 2D6 (P10635 whole entry): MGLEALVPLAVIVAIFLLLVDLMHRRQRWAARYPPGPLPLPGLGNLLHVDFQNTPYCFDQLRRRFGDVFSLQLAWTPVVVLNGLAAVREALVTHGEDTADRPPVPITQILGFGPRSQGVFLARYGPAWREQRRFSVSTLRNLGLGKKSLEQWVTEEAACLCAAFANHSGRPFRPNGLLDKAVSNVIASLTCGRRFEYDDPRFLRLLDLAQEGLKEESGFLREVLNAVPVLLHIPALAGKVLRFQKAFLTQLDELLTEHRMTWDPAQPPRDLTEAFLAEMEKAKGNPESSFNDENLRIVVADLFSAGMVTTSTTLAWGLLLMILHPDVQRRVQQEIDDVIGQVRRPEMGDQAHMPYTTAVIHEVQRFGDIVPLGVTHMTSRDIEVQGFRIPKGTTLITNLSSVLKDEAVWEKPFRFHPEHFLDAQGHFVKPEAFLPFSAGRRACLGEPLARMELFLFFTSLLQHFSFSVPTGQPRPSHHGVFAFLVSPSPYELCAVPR

CYP 3A4 = CYP 3A4 (Homo sapiens (Human), UniProt P08684); assay: CYP inhibition in human liver microsomes, 3A4
Chain of CYP 3A4 (P08684 whole entry): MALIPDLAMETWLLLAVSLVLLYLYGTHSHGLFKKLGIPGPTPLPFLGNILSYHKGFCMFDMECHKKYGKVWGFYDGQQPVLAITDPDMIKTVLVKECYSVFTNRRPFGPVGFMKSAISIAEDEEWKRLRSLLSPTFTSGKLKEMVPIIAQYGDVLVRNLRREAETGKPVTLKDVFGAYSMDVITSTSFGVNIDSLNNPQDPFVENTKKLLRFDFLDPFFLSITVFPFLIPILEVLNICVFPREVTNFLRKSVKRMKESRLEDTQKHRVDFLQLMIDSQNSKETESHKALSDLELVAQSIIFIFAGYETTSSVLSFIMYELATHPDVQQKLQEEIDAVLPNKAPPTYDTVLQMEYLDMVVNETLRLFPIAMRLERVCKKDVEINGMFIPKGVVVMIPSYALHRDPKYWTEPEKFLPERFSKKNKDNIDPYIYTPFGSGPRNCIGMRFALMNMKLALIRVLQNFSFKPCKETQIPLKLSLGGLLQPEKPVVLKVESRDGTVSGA

With `[2H]C([2H])([2H])C1(C([2H])([2H])[2H])NC(=O)N(c2ccc(F)c(C(C)(F)F)c2)C1=O` [Compound IE, 3-(3-(1,1-difluoroethyl)-4-fluorophenyl)-5,5-bis(methyl-d3)imidazolidine-2,4-dione] the ED50 (S. mansoni; adult stage, read-out: S. mansoni ED50, adult) was 7.1 mg/kg, the ED50 (S. mansoni; juvenile stage, read-out: S. mansoni ED50, juvenile) was 16 mg/kg and the ED50 (S. japonicum; Schistosoma japonicum, oral) was 8.5 mg/kg. For the same compound, the “clearance of S. japonicum infections” value (S. japonicum; single 25 mg/kg oral dose) was “completely cleared”, the “loss of parent compound, acidic conditions” value ([1]; 0.01 M and 0.1 M HCl, up to 48 h) was “minimal loss” and the “loss of parent compound, basic conditions” value ([1]; 0.01 M and 0.1 M NaOH, after 2 min) was “significant loss”. The “loss of parent compound, 15% H2O2” value ([1]; 15% H2O2 incubation) was “no significant loss”, the CLint [2] was under 2 μL/min/10^6 and the hepatocyte CLint ([2]; read-out: in vitro CLint) was under 2000 µL/min/1e6 cells. For the same compound, the fraction unbound [3] was 0.42, the “B:P” value [4] was 1.0 and the IC50 (CYP 1A2; 1A2, read-out: CYP inhibition IC50) was over 20 µM. The CYP inhibition (CYP 1A2; CYP 1A2, concentrations up to 20 μM, human liver microsomes) was “did not inhibit”, the AUC ([5]; male, Sprague Dawley, rat, in vivo, iv, 0.9 mg/kg, IV 0.9 mg/kg, read-out: Plasma AUCIV) was 31700 ng·h/mL and the clearance ([5]; male, Sprague Dawley, rat, in vivo, iv, 0.9 mg/kg, IV 0.9 mg/kg, read-out: Plasma CL) was 0.476 mL/min/kg. The Cmax ([5]; male, Sprague Dawley, rat, in vivo, po, 0.9 mg/kg, PO 0.9 mg/kg, read-out: Plasma Cmax) was 440 ng/mL, the Tmax ([5]; male, Sprague Dawley, rat, in vivo, po, 0.9 mg/kg, PO 0.9 mg/kg, read-out: Tmax) was 11 h and the half-life ([5]; male, Sprague Dawley, rat, in vivo, IV 0.9 mg/kg) was 32 ± 2 h. For the same compound, the half-life ([5]; male, Sprague Dawley, rat, in vivo, PO 0.9 mg/kg) was 39 h, the “Apparent t1/2” value ([5]; IV 0.9 mg/kg) was 32 h and the PlasmaVSS ([5]; IV 0.9 mg/kg) was 1.69 L/kg. For the same compound, the BA ([5]; PO 0.9 mg/kg) was 113%, the “Plasma AUCoral” value ([5]; PO 0.9 mg/kg) was 36.0 H*ug/mL and the fraction unbound (Binding to HLM) was 1. For the same compound, the “B:P” value [6] was 1.0, the CYP inhibition (CYP 2D6; CYP 2D6, concentrations up to 20 μM, human liver microsomes) was “did not inhibit” and the IC50 (CYP 2D6; read-out: CYP inhibition IC50, 2D6) was over 20 µM. For the same compound, the CYP inhibition (CYP 3A4; CYP 3A4, concentrations up to 20 μM, human liver microsomes) was “did not inhibit” and the IC50 (CYP 3A4; read-out: CYP inhibition IC50, 3A4* (tes/mid)) was over 20 µM.
